Measured values as given in ChEMBL document CHEMBL3774317, “Design and synthesis of novel tamoxifen analogues that avoid CYP2D6 metabolism” (Eur J Med Chem, 2016).

Experiments:
[1] = Cytotoxicity against human OVCAR5 cells assessed as cell growth at 10^-4 M after 48 hrs by SRB assay; format: functional; details: OVCAR-5, 48 h, read-out: Activity
[2] = Cytotoxicity against human SW620 cells assessed as cell growth at 10^-7 M after 48 hrs by SRB assay; format: functional; details: SW-620, 48 h, read-out: Activity
NCI-H226 = assay: Cytotoxicity against human NCI-H226 cells assessed as cell growth at 10^-7 M after 48 hrs by SRB assay; format: functional; details: NCI-H226, 48 h, read-out: Activity
Malme-3M = assay: Cytotoxicity against human MALME-3M cells assessed as cell growth at 10^-6 M after 48 hrs by SRB assay; format: functional; details: read-out: Activity
Estrogen receptor beta = Estrogen receptor beta (Homo sapiens, UniProt Q92731)
Description: Displacement of [3H]-E2 from human ER-beta incubated for 16 to 20 hrs by liquid scintillation counting analysis

[3] = Cytotoxicity against human UO31 cells assessed as cell growth at 10^-7 M after 48 hrs by SRB assay; format: functional; details: UO-31, 48 h, read-out: Activity
[4] = Cytotoxicity against human Hs 578T cells assessed as cell growth at 10^-6 M after 48 hrs by SRB assay; format: functional; details: read-out: Activity
[5] = Cytotoxicity against human HOP62 cells assessed as cell growth at 10^-5 M after 48 hrs by SRB assay; format: functional; details: HOP-62, 48 h, read-out: Activity
[6] = Cytotoxicity against human UO31 cells assessed as cell growth at 10^-8 M after 48 hrs by SRB assay; format: functional; details: UO-31, 48 h, read-out: Activity
[7] = Cytotoxicity against human SNB75 cells assessed as cell growth at 10^-4 M after 48 hrs by SRB assay; format: functional; details: SNB-75, 48 h, read-out: Activity
SK-MEL-28 [8] = assay: Cytotoxicity against human SK-MEL-28 cells assessed as cell growth at 10^-4 M after 48 hrs by SRB assay; format: functional; details: SK-MEL-28, 48 h, read-out: Activity
SK-MEL-2 = assay: Cytotoxicity against human SK-MEL-2 cells assessed as cell growth at 10^-4 M after 48 hrs by SRB assay; format: functional; details: SK-MEL-2, 48 h, read-out: Activity
M14 = assay: Cytotoxicity against human M14 cells assessed as cell growth at 10^-8 M after 48 hrs by SRB assay; format: functional; details: M14, 48 h, read-out: Activity
MCF7 = assay: Cytotoxicity against human MCF7 cells assessed as cell growth at 0.5 uM after 48 hrs by SRB assay; format: functional; details: MCF7, 48 h, read-out: Activity
[9] = Cytotoxicity against human UACC257 cells assessed as cell growth at 0.5 uM after 48 hrs by SRB assay; format: functional; details: UACC-257, 48 h, read-out: Activity
[10] = Cytotoxicity against human HL-60(TB) cells assessed as cell growth at 50 uM after 48 hrs by SRB assay; format: functional; details: HL-60, 48 h, read-out: Activity
[11] = Cytotoxicity against human UACC62 cells assessed as cell growth at 5 nM after 48 hrs by SRB assay; format: functional; details: UACC-62, 48 h, read-out: Activity
[12] = Cytotoxicity against human Caki1 cells assessed as cell growth at 5 uM after 48 hrs by SRB assay; format: functional; details: CAKI-1, 48 h, read-out: Activity
[13] = Cytotoxicity against human SNB19 cells assessed as cell growth at 5 uM after 48 hrs by SRB assay; format: functional; details: SNB-19, 48 h, read-out: Activity
[14] = Cytotoxicity against human OVCAR8 cells assessed as cell growth at 50 nM after 48 hrs by SRB assay; format: functional; details: OVCAR-8, 48 h, read-out: Activity
[15] = Cytotoxicity against human SF539 cells assessed as cell growth at 50 uM after 48 hrs by SRB assay; format: functional; details: SF-539, 48 h, read-out: Activity
[16] = Cytotoxicity against human SW620 cells assessed as cell growth at 50 nM after 48 hrs by SRB assay; format: functional; details: SW-620, 48 h, read-out: Activity
[17] = Cytotoxicity against human OVCAR4 cells assessed as cell growth at 50 uM after 48 hrs by SRB assay; format: functional; details: OVCAR-4, 48 h, read-out: Activity
SK-MEL-28 [18] = assay: Cytotoxicity against human SK-MEL-28 cells assessed as cell growth at 5 nM after 48 hrs by SRB assay; format: functional; details: SK-MEL-28, 48 h, read-out: Activity
[19] = Cytotoxicity against human UACC62 cells assessed as cell growth at 5 uM after 48 hrs by SRB assay; format: functional; details: UACC-62, 48 h, read-out: Activity
[20] = Cytotoxicity against human PC3 cells assessed as cell growth at 50 uM after 48 hrs by SRB assay; format: functional; details: PC-3, 48 h, read-out: Activity
T47D = assay: Cytotoxicity against human T47D cells assessed as cell growth at 5 nM after 48 hrs by SRB assay; format: functional; details: read-out: Activity
SR = assay: Cytotoxicity against human SR cells assessed as cell growth at 5 nM after 48 hrs by SRB assay; format: functional; details: read-out: Activity

Estrogen receptor beta, sequence (Q92731 whole entry): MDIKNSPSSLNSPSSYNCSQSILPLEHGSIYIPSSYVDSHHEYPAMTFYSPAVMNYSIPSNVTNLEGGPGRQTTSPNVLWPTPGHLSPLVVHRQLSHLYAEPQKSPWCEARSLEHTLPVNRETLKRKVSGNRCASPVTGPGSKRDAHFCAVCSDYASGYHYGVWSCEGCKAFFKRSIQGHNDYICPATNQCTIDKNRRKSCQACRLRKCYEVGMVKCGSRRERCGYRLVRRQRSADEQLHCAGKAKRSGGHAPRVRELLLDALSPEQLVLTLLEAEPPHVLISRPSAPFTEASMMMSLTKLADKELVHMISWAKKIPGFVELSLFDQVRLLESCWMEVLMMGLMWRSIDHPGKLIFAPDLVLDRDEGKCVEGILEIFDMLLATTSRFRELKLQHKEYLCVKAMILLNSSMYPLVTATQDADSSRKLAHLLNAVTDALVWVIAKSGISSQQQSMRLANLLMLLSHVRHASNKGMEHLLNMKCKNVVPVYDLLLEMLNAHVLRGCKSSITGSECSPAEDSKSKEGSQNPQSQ

SMILES: C/C(=C(/c1ccc(O)cc1)c1ccc(OCCN2CCCC2)cc1)c1ccccc1
- growth at 100 µM [1]: -85%
- growth at 0.1 µM [2]: 103%
- growth at 0.1 µM (NCI-H226): 95%
- growth at 1 µM (Malme-3M): 88%
- IC50 (Estrogen receptor beta): 40 nM
- growth at 0.1 µM [3]: 90%
- growth at 1 µM [4]: 95%
- growth at 10 µM [5]: -51%
- growth at 0.01 µM [6]: 93%
- growth at 100 µM [7]: -94%
- growth at 100 µM (SK-MEL-28 [8]): -93%
- growth at 100 µM (SK-MEL-2): -89%
- growth at 0.01 µM (M14): 92%

SMILES: CCCCCCCCCC(=O)Oc1ccc(/C(=C(/C)c2ccccc2)c2ccc(OCCN3CCCC3)cc2)cc1
- growth at 0.5 µM (MCF7): 29%
- growth at 0.5 µM [9]: 76%
- growth at 50 µM [10]: -70%
- growth at 0.005 µM [11]: 100%
- growth at 5 µM [12]: 71%
- growth at 5 µM [13]: 94%
- growth at 0.05 µM [14]: 101%
- growth at 50 µM [15]: -82%
- growth at 0.05 µM [16]: 97%
- growth at 50 µM [17]: -87%
- growth at 0.005 µM (SK-MEL-28 [18]): 104%
- growth at 5 µM [19]: 100%
- growth at 50 µM [20]: -90%
- growth at 0.005 µM (T47D): 69%
- growth at 0.005 µM (SR): 99%
